Test results as given in patent US20090233965A1, “Alkyl Esters Of Cyclic Amino Alcohols With Muscarinic M3 Receptor Antagonist Activity, Useful For Treating E.G. Chronic Bronchial Obstruction, Asthma And Overactive Bladder” (priority 2006, published 2009).
Like-named read-outs stand apart in the source and are kept apart here.

Molecular target: human muscarinic acetylcholine M3 receptor (M3-ACh) (Homo sapiens, UniProt P20309)
Experiment: M3 Receptor Activity Assay: competition binding of [3H]N-methyl scopolamine, SPA format
[1] = competition binding of [3H]NMS at 0.2 nM to CHO-K1 cell membranes expressing human M3 receptor, 16 hours at room temperature, read-out: pIC50 (converted)

human muscarinic acetylcholine M3 receptor (M3-ACh), sequence (P20309 whole entry): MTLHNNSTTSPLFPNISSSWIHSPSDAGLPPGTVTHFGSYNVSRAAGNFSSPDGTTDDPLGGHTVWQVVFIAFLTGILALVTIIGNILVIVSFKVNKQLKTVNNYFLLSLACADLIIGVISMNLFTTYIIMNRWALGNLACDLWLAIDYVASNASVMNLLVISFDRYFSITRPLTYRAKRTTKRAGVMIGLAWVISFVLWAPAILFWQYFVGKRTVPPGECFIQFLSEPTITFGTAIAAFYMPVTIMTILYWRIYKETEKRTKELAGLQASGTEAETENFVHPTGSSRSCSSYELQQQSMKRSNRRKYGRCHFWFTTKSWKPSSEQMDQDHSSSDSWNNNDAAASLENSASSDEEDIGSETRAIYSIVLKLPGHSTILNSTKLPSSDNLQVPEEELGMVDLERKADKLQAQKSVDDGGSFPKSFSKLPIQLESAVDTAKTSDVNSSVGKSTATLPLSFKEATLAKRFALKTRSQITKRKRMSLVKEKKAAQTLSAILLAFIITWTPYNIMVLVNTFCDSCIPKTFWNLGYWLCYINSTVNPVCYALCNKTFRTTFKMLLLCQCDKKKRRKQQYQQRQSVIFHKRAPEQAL
Description: The assay was conducted in a final volume of 200 μL, in the presence of 1% (v/v) dimethyl sulphoxide (DMSO). Total binding of [^3H]NMS was determined in the absence of competing compound and non-specific binding of [3H]NMS was determined in the presence of 1 μM atropine. The plates were incubated for 16 hours at room temperature and then read on Wallac Microbeta™ using a normalised ^3H protocol.

| Structure (SMILES) | IC50 | IC50 [1] |
| --- | --- | --- |
| CC(C(=O)OC1CC[N+](C)(C)CC1)(c1ccccc1)C1CC1 (stereo not drawn) [Example 3, 4-[(2-Cyclopropyl-2-phenylpropanoyl)oxy]-1,1-dimethylpiperidinium iodide] | 0.398 nM |  |
| Cc1ccc(C(C)(C(=O)OC2CC[N+](C)(C)CC2)C2CCCC2)s1 (stereo not drawn) [Example 9, 4-{[2-Cyclopentyl-2-(5-methyl-2-thienyl)propanoyl]oxy}-1,1-dimethylpiperidinium iodide] |  | 0.0794 nM |
| CC(C(=O)OC1CC[N+](C)(C)CC1)(c1ccc(Cl)cc1)C1CCCC1 (stereo not drawn) [Example 19, 4-{[2-(4-Chlorophenyl)-2-cyclopentylpropanoyl]oxy}-1,1-dimethylpiperidinium iodide] |  | 0.2 nM |
